From US12305162B2, “Method for expanding propagation of Metarhizium rileyi MR006 and use thereof” (priority 2023, dated 2025) come the findings set out here.

The structures appear in SMILES notation.

Among the test systems are Helicoverpa armigera; Spodoptera litura; Spodoptera frugiperda.
What all share (experiment): Sub-lethal dose (LC25) of chlorantraniliprole on 2nd instar larvae
Holding throughout (format): in vivo

For `CNC(=O)c1cc(Cl)cc(C)c1NC(=O)c1cc(Br)nn1-c1ncccc1Cl` [chlorantraniliprole], the LC25 value in the test on Helicoverpa armigera stood at 0.015 µg/g; in the test with Spodoptera litura, 0.008 µg/g; in the test with Spodoptera frugiperda, 0.006 µg/g.
